Measurements: article PMC5958064, “Single cell analysis of kynurenine and System L amino acid transport in T cells” (Nature Communications, 2018)

How the values were obtained:
[1] = test system: AHR; experiment: Cyp1a1 mRNA induction in TH17cond CD4+ T cells (qPCR); format: cell-based, mouse
Description: To activate primary T cells, spleens and/or lymph nodes (LN) were removed, disaggregated and red blood cells lysed. Cells were stimulated with 1 μg/ml of the CD3 monoclonal antibody (2C11) and 2 μg/ml anti-CD28 (37.51; ebiosciences) to trigger the TCR. Naive CD4^+ T cells and 24 h TCR-activated CD4^+ T cells were purified using CD4 isolation kit (EasySep, STEMCELL Technologies). […] Proleukin, Novartis) for a further 3–5 days. To generate TH1s and TH17s, murine CD8^+ T cells were depleted from lymph node preparations using CD8 depletion kit (EasySep, STEMCELL Technologies). […] RnD Systems) and IL-2 (20 ng/ml) and for TH17s; cytokines IL-6 (50 ng/ml, Peprotech), IL-1β (10 ng/ml, Peprotech) and TGFβ (2 ng/ml, Peprotech). TH17s were cultured in IMDM (Gibco). All other cells were cultured in RPMI 1640 containing L-glutamine (Gibco). Culture media was supplemented with 10% FBS (Gibco), 50 μM β-mercaptoethanol (β-ME, Sigma) and penicillin/streptomycin (Gibco). Cells were incubated at 37 °C with 5% CO2 throughout. […] RNA was purified using the RNeasy RNA purification Mini Kit (Qiagen) (Genomic DNA was digested with RNase-free DNase (Qiagen) following manufacturer instructions) and reverse-transcribed using the iScript cDNA synthesis kit (BioRad). Quantitative PCR was performed in 96-well plate format using iQ SYBR Green-based detection (BioRad) on a BioRad iCycler.

[2] = test system: AHR; parameters: method as in PMID 25657351, PMID 29279331; settings: cited from earlier work
[3] = target: T1, System L transporter SLC7A5 (Mus musculus, UniProt Q9Z127); experiment: Radiolabelled 3H-kynurenine uptake in T cells; format: cell-based; settings: compared with kynurenine Km ~200 μM
T1 construct: endogenous in cells
T1 sequence (Q9Z127 whole entry): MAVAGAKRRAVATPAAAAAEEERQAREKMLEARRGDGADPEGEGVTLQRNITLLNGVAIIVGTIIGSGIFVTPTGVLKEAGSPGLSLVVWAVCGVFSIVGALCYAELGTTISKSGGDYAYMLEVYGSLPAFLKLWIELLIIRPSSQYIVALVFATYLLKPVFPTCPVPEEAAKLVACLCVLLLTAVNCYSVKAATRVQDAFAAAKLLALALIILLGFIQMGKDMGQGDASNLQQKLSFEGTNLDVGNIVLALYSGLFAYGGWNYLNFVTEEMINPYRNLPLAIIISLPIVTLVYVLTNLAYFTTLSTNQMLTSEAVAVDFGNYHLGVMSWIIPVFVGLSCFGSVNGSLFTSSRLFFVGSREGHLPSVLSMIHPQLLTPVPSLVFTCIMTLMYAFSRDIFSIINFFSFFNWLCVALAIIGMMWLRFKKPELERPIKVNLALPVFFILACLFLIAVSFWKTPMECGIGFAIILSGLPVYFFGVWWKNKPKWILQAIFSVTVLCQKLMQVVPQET
T1 sequence (P10852 whole entry partner): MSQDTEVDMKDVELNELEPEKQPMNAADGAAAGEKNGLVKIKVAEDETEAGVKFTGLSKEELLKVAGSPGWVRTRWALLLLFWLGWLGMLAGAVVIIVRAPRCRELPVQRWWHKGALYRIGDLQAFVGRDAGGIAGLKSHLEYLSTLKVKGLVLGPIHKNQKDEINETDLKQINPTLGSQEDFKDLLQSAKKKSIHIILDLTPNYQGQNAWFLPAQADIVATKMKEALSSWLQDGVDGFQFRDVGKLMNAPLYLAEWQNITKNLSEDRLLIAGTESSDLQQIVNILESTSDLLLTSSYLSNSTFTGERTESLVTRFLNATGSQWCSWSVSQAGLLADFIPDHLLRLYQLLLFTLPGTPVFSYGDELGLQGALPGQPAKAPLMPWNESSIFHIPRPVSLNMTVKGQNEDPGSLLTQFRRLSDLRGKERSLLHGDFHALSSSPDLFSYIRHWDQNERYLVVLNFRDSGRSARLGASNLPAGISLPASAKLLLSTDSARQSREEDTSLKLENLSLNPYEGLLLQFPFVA
Description: To activate primary T cells, spleens and/or lymph nodes (LN) were removed, disaggregated and red blood cells lysed. Cells were stimulated with 1 μg/ml of the CD3 monoclonal antibody (2C11) and 2 μg/ml anti-CD28 (37.51; ebiosciences) to trigger the TCR. Naive CD4^+ T cells and 24 h TCR-activated CD4^+ T cells were purified using CD4 isolation kit (EasySep, STEMCELL Technologies). […] Proleukin, Novartis) for a further 3-5 days. To generate TH1s and TH17s, murine CD8^+ T cells were depleted from lymph node preparations using CD8 depletion kit (EasySep, STEMCELL Technologies). […] RnD Systems) and IL-2 (20 ng/ml) and for TH17s; cytokines IL-6 (50 ng/ml, Peprotech), IL-1β (10 ng/ml, Peprotech) and TGFβ (2 ng/ml, Peprotech). TH17s were cultured in IMDM (Gibco). All other cells were cultured in RPMI 1640 containing L-glutamine (Gibco). Culture media was supplemented with 10% FBS (Gibco), 50 μM β-mercaptoethanol (β-ME, Sigma) and penicillin/streptomycin (Gibco). Cells were incubated at 37 °C with 5% CO2 throughout. […] Cells were pelleted below the oil, the aqueous supernatant solution, followed by the silicon oil/dibutyl phthalate mixture was aspirated, and the cell pellet underneath resuspended in 200 μl NaOH (0.5 M) and β-radioactivity measured by liquid scintillation counting in a Beckman LS 6500 Multi-Purpose Scintillation Counter (Beckman Coulter). […] Where indicated, the sodium free buffer was prepared using TMACl as described in Baird et al.[35] Data are expressed as molecules radiotracer per cell per minute. […] All other chemicals were obtained from Sigma.

[4] = target: T1, System L transporter SLC7A5; experiment: Flow cytometry kynurenine uptake assay (450 nm fluorescence) in T cells; format: cell-based; settings: for effect on kynurenine transport ex vivo: D7 rLM-infected CD8+ T cells; for effect on kynurenine transport ex vivo / effect on kynurenine transport (450 nm fluorescence): BCH 10 mM, Leu 5 mM, Lys 5 mM; for effect on kynurenine transport (450 nm fluorescence): TCR-stimulated CD8+ T cells or CTLs; for effect on kynurenine transport (450 nm fluorescence) / IC50: 4 min; for IC50: 37 °C
Source text: For cell surface staining, antibodies conjugated to FITC, PE, APC, Alexafluor 647 (A647), APC-efluor780 (APCe780), and PerCPCy5.5 were obtained from either BD Pharmingen, eBioscience or Biolegend. Fc receptors were blocked using Fc Block (BD Pharmingen). Antibody clones used were: CD4 (RM4-5), CD8a (53-6.7), TCRβ (H57-597), CD44 (IM7), CD45.1 (A20), CD45.2 (104) and CD98 (RC388). Cells were fixed using 1% paraformaldehyde. Standard intracellular cytokine staining protocols were followed for IFNγ (clone XMG1.2; Biolegend) staining. Data were acquired on a LSR Fortessa II with DIVA software or a FACSVerse flow cytometer with FACSuite software (BD Biosciences) and analysed using FlowJo software version 9.9.5 (TreeStar).
Start with at least 1 × 10^6 cells per condition, to obtain at least 200,000 events analysed by flow cytometry at the end of the protocol. […] If required, surface cell antibody staining should be performed prior to uptake assay protocol. This may be performed at room temperature or 4 °C, however test samples must be warmed to 37 °C, e.g. in water bath, prior to kynurenine uptake. (As with all multi-parameter flow cytometry, appropriate antibody staining controls must also be performed.) Samples can be fixed immediately after uptake assay by addition of 4% (vol/vol) paraformaldehyde (PFA; to a final concentration of 1%) for 30 min at room temperature.
For kynurenine uptake assay; pre-warm kynurenine (800 μM, in HBSS), BCH (40 mM, in HBSS) and lysine (20 mM, HBSS) and HBSS to 37 °C. After surface antibody staining of samples, resuspend cells in 200 μl warmed HBSS (1–5 × 10^6 cells in FACS tubes, or scale accordingly into plates). Keep cells in water bath at 37 °C. Add 100 μl of HBSS, or BCH or lysine to appropriate samples. Add 100 μl HBSS to no kynurenine controls (final volume 400 μl). Finally, add 100 μl kynurenine to appropriate samples. Stop uptake after 4 min by adding 125 μl 4% PFA for 30 min at room temperature, in the dark. The final concentrations for uptake assay are: 200 μM kynurenine; +/-10 mM BCH; +/-5 mM lysine. After fixation, wash cells twice in PBS/0.5% BSA and resuspend in PBS/0.5% BSA prior to acquisition on flow cytometer. The 405 nm laser and 450/50 BP filter are used for kynurenine fluorescence detection.
To monitor kynurenine uptake in live cells, acquire data on flow cytometer immediately following addition of kynurenine and plot fluorescence against time.

[5] = test system: mTORC1; experiment: mTORC1 activity in CTLs after leucine removal and refeeding; format: cell-based, mouse; settings: CTLs removed from leucine, refed leucine 100uM ± Kyn 100uM
Source text: page 13: • We […] would not be able to measure the levels of in vivo ky nurenine uptake with this assay (for the reasons explained above). However, this is a pertinent question, and will relate to the total amount of available kynurenine compared to alternative System L substrates. The detailed micro-environmental metabolomics techniques required to perform this kind of analysis is beyond the scope of this paper, however we have tried to address this point in the discussion. Second, did CD4 T cells (Foxp3-) and Tregs (Foxp3+) from Lm-infected mice also i mport Ky n? […] This, also, is a very interesting aspect, however we feel that it is beyond the scope of this paper. Point 4: Data presented in Figures 4 & 5 show convincingly that SLC7A5 ablation in CD4 T cells abolishes Kyn uptake in CD4 T cells selectively and that imported Kyn triggers AhR signaling in CD4 T cells, respectively. However, no data is presented to address the biological significance of these findings, specifically regarding the reported ability of Kyn to suppress Th1 responses (e.g. IFNg production) or to reinforce Treg-mediated suppression of effector T cells via AhR signaling. […]

O=Cc1c2[nH]c3ccccc3c2cc2[nH]c3ccccc3c12 [FICZ, 6-formylindolo[3,2-b]carbazole]
Cyp1a1 mRNA induction, D3 versus D5 post activation ([1]; TH17cond CD4+ T cells, kynurenine 100 μM or FICZ 300 nM, 2 h): equivalent on D3 and D5 | concentrations needed to activate the AHR [2]: pM/nM range

CSCC[C@H](N)C(=O)O [methionine]
Km of other System L substrates relative to Km of kynurenine [3]: ~ 10 fold less

Clc1cc2c(cc1Cl)Oc1cc(Cl)c(Cl)cc1O2 [TCDD, 2,3,7,8-tetrachlorodibenzo-p-dioxin]
concentrations needed to activate the AHR [2]: pM/nM range

NCCCC[C@H](N)C(=O)O [lysine]
effect on kynurenine uptake ([4]; CD3/CD28 activated wild-type T cells in co-culture, 5 mM lysine, BCH): did not inhibit kynurenine uptake | effect on kynurenine transport ex vivo [4]: not by lysine competition | effect on kynurenine transport (450 nm fluorescence) [4]: does not affect kynurenine transport

Cc1ccccc1N=Nc1ccc(NC(=O)c2ccnn2C)c(C)c1 [CH223191]
effect on kynurenine-induced Cyp1A1 mRNA ([1]; D3 TH17cond cells, kynurenine 10 μM 2 h, CH223191 30 μM): completely blocked

CC(C)C[C@H](N)C(=O)O [leucine]
Km of other System L substrates relative to Km of kynurenine [3]: ~ 10 fold less | IC50 ([4]; CTL): 411 ± 30 µM | IC50 ([4]; D7 rLM CD8+ effector T cells from spleen, ex vivo): 168 ± 38 µM | effect on kynurenine transport ex vivo [4]: blocked | effect on kynurenine transport (450 nm fluorescence) [4]: blocks kynurenine transport to comparable levels as BCH | effect on mTORC1 activity [5]: establishes mTORC1 activity

N[C@@H](Cc1c[nH]c2ccccc12)C(=O)O [tryptophan]
Km of other System L substrates relative to Km of kynurenine [3]: ~ 10 fold less
